# Experimental data published in patent publication US8513203B2, “Composition and method thereof” (Indus Biotech Private Limited, priority 2011, dated 2013).
# System: FCA induced arthritis
# Test: FCA induced arthritis, non-injected paw volume
# Format: in vivo, rat
# Details: 10 mg/kg
# Protocol: Anti-arthritis activity was studied by injecting Freund's complete adjuvant (FCA) in rat paw and measuring the edema formation and percentage inhibition of paw volume in the non-injected paw.
# Male wistar rats weighing between 190-250 g were injected with 0.1 ml of FCA into the sub planter region of left hind paw. 0.1 ml of FCA solution consist of 6 mg of Complete Fraction of Mycobacterium Butyrium (Difco) being Suspended in heavy Paraffin Oil (Merck). Local oedema was produced after few hrs. Treatment with the test compound was carried out from day 13 to day 21 after FCA injection. Volume of the non-injected hind paw was recorded using plethysmometer (UGO Basile 7140).
# The percentage inhibition of inflammation in the non-injected paw was measured as difference in the mean paw volume of the FCA control group to that of the treated animals.
smiles,measurement,setting,value
Cc1ccc(-c2cc(C(F)(F)F)nn2-c2ccc(S(N)(=O)=O)cc2)cc1 [Celecoxib],Percentage reduction of FCA induced arthritis,Day 18,58.97 ± 35.93 %
same,Percentage reduction of FCA induced arthritis,Day 21,81.24 ± 22.35 %
